This passage reports remaining binding results from patent US11208412B2 (DAEGU-GYEONGBUK MEDICAL INNOVATION FOUNDATION, priority 2017, dated 2021).

Each structure is given as a SMILES string.

What all share (experiment): Kinase selectivity, DiscoverX scanMAX Kinase assay panel (% control)
Common to all, as to assay type: binding

Experiment [1] concerns the target T1, kinases of the scanMAX Kinase assay panel (Homo sapiens, UniProt O75460).
T1 construct: purchased DiscoverX Co. (contract measurement) scanMAX Kinase assay panel
The settings on record: ERN1; 1 uM. The method, boiled down:
(§1)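 Compounds were tested at 1 uM (in DMSO) against each panel kinase. % control was calculated as (compound − positive control)/(negative control − positive control)×100, where the positive control gives 0% and DMSO gives 100%. Activity toward a kinase was called at % control <35%.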

In experiment [2] the target is T2, kinases of the scanMAX Kinase assay panel (Homo sapiens, UniProt P10721, T670I/V559D).
T2 construct: purchased DiscoverX Co. (contract measurement) scanMAX Kinase assay panel
The settings on record: KIT(V559D, T670I); 1 uM. An outline of the steps:
as §1

The target in experiment [3] is T3, kinases of the scanMAX Kinase assay panel (Homo sapiens, UniProt P17948).
T3 construct: purchased DiscoverX Co. (contract measurement) scanMAX Kinase assay panel
Conditions: FLT1; 1 uM. An outline of the steps:
as §1

Experiment [4] concerns the target T4, kinases of the scanMAX Kinase assay panel (Homo sapiens, UniProt P36507).
T4 construct: purchased DiscoverX Co. (contract measurement) scanMAX Kinase assay panel
Conditions: MEK2; 1 uM. An outline of the steps: as §1

The target in experiment [5] is T5, kinases of the scanMAX Kinase assay panel (Homo sapiens, UniProt Q5S007, G2019S).
T5 construct: purchased DiscoverX Co. (contract measurement) scanMAX Kinase assay panel
Conditions: LRRK2(G2019S); 1 uM. An outline of the steps: as §1

Experiment [6] has as its target T6, kinases of the scanMAX Kinase assay panel (Homo sapiens, UniProt Q8IW41).
T6 construct: purchased DiscoverX Co. (contract measurement) scanMAX Kinase assay panel
T6 sequence (Q8IW41 1-473): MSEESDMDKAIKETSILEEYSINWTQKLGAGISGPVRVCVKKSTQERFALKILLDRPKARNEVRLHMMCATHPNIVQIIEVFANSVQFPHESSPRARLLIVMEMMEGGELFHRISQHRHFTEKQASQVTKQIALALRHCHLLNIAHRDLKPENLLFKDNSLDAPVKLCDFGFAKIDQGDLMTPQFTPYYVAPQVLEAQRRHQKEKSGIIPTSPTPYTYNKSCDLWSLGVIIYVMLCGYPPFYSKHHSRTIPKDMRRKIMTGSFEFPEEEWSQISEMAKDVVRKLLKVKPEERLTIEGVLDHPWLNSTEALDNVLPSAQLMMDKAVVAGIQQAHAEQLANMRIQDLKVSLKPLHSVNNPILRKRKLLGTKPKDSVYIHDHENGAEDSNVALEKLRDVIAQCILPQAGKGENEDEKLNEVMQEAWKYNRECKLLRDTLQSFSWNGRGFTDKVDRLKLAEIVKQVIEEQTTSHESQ
Conditions: MAPKAPK5; 1 uM. The method, boiled down:
as §1

The target in experiment [7] is T7, kinases of the scanMAX Kinase assay panel (Homo sapiens, UniProt Q8NE63).
T7 construct: purchased DiscoverX Co. (contract measurement) scanMAX Kinase assay panel
T7 sequence (Q8NE63 1-616): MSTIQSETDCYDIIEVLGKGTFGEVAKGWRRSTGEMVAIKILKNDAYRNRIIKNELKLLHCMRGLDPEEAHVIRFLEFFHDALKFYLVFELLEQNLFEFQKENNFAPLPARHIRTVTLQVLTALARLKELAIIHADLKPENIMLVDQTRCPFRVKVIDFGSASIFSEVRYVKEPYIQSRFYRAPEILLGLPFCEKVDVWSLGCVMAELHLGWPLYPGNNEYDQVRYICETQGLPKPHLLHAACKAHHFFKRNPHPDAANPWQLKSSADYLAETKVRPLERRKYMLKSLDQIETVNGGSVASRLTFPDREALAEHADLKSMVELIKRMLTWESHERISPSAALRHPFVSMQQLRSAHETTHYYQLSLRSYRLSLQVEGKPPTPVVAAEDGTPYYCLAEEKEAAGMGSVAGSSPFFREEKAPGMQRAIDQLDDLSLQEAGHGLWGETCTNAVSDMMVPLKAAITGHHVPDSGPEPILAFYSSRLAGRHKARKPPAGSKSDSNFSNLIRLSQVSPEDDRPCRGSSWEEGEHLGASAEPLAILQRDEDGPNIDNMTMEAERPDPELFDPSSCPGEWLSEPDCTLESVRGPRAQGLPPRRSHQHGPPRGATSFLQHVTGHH
Conditions: HIPK4; 1 uM. An outline of the steps:
as §1

Experiment [8] concerns the target T8, kinases of the scanMAX Kinase assay panel (Homo sapiens, UniProt Q8TD19).
T8 construct: purchased DiscoverX Co. (contract measurement) scanMAX Kinase assay panel
T8 sequence (Q8TD19 1-979): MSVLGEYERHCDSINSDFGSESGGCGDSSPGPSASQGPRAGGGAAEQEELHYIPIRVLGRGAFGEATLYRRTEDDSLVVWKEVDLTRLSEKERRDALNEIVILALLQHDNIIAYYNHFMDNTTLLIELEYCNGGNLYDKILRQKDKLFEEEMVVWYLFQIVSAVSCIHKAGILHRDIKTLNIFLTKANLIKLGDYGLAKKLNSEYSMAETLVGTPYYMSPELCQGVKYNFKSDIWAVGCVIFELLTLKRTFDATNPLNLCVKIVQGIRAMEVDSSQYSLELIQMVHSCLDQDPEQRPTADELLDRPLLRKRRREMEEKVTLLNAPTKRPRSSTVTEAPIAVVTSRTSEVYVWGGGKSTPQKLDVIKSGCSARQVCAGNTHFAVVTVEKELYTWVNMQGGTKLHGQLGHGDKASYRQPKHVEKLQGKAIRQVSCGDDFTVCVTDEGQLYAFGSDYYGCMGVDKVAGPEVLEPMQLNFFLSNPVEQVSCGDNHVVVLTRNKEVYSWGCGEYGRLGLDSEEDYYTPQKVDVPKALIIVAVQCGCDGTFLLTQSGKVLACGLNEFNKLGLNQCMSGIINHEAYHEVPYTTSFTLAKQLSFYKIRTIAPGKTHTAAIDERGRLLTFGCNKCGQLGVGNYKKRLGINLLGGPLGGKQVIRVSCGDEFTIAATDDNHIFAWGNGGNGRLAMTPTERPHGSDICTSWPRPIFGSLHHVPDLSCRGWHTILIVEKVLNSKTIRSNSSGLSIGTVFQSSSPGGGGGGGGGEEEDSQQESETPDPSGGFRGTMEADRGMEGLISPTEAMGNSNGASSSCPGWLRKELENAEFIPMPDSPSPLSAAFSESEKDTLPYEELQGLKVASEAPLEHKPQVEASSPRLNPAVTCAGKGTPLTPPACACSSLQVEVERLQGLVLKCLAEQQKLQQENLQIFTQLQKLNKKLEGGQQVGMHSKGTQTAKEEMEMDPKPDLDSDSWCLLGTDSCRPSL
Conditions: NEK9; 1 uM. The method, boiled down: as §1

T2 sequence (P10721 26-976 V559D/T670I): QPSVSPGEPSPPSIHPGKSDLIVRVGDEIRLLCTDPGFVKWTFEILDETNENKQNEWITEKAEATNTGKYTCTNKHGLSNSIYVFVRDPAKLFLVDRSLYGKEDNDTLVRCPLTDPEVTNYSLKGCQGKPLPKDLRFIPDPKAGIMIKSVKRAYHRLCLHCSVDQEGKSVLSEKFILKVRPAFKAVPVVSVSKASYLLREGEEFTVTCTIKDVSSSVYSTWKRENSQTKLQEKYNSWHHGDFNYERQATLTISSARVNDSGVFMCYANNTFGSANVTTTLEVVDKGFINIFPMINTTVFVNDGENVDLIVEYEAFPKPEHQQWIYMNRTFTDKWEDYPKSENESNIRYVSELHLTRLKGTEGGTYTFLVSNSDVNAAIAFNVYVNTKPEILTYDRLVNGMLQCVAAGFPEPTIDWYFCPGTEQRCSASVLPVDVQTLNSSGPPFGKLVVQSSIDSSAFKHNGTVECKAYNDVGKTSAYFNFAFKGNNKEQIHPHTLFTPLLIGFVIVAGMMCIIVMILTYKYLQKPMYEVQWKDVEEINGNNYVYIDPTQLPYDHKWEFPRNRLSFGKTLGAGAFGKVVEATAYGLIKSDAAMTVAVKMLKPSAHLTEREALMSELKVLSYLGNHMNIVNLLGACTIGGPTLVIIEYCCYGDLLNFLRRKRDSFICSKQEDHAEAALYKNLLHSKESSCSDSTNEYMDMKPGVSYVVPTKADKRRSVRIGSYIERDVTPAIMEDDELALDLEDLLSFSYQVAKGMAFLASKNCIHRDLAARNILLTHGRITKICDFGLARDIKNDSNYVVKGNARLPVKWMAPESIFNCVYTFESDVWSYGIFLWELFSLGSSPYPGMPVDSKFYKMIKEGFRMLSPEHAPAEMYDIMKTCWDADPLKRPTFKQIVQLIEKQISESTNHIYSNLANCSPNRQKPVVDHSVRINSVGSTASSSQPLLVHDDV
T4 sequence (P36507 whole entry): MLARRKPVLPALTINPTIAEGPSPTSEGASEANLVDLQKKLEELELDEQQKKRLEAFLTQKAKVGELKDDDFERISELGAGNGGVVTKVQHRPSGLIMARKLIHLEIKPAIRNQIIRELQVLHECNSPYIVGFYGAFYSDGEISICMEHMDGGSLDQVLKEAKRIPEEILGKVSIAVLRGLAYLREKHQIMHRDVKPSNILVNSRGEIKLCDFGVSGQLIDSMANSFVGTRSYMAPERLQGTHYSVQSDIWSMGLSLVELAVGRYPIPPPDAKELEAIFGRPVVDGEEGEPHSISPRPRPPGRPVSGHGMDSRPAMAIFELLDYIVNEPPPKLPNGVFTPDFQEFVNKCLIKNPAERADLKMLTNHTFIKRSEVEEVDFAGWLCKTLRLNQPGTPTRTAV
T3 sequence (P17948 27-1338): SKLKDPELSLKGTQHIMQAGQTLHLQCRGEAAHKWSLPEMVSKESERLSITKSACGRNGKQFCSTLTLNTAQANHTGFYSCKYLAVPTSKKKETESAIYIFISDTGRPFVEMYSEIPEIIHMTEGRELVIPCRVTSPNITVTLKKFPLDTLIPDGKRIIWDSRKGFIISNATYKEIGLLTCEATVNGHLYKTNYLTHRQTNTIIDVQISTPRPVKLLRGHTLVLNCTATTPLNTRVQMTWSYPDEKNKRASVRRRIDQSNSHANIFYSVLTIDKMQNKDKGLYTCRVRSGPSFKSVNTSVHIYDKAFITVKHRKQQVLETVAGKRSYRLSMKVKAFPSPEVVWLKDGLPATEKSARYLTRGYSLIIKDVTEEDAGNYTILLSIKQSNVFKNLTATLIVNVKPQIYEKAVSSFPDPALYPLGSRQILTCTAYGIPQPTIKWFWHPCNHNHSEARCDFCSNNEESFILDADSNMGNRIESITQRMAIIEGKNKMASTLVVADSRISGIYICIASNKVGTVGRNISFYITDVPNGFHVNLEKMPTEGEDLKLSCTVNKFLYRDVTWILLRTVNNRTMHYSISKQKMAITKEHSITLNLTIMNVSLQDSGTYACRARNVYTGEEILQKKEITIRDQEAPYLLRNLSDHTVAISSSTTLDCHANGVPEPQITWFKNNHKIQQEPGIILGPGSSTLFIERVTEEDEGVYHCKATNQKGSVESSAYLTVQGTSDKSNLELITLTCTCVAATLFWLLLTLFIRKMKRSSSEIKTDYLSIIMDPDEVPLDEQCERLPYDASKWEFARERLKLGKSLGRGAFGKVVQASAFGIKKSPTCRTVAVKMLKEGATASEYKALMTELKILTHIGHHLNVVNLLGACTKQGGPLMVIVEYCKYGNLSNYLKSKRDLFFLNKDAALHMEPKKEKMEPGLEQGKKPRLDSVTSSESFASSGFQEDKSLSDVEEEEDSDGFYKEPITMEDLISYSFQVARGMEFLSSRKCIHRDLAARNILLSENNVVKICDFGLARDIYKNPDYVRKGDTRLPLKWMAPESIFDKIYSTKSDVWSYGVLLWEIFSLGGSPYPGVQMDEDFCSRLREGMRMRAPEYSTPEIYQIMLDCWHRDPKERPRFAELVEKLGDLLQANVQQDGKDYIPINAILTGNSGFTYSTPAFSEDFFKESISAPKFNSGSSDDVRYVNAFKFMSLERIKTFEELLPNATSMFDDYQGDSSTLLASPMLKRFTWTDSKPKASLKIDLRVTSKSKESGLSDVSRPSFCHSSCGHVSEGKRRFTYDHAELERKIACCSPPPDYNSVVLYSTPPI
T1 sequence (O75460 19-977): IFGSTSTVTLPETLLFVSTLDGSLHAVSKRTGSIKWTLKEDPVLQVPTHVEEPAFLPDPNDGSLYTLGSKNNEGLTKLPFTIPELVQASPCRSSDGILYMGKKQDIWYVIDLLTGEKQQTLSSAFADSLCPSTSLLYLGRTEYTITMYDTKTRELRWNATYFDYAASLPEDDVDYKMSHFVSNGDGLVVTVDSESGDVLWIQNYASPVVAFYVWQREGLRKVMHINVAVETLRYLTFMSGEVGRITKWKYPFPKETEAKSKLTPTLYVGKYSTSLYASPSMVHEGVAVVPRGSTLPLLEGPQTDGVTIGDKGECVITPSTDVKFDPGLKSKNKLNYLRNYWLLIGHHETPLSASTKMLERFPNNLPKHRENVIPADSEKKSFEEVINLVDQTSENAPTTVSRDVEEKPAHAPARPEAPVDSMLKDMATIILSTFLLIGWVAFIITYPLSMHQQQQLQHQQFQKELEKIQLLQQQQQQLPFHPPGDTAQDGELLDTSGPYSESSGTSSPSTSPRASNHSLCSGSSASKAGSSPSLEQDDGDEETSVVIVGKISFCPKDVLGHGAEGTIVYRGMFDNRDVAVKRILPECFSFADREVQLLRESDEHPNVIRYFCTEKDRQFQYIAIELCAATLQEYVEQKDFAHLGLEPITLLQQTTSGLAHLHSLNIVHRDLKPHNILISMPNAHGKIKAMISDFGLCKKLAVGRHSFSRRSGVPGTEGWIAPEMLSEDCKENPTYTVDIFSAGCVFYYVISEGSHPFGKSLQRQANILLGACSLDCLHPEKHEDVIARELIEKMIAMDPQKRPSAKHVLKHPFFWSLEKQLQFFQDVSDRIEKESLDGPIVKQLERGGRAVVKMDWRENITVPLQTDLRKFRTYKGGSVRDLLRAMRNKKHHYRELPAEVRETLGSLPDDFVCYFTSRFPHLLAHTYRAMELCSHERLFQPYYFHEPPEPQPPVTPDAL

In the case of `CC1(Nc2nc(Nc3cnn([C@H]4CCN(C5COC5)C[C@@H]4F)c3Cl)nc3[nH]cc(C#N)c23)CC1` [Example 52, 2-((5-chloro-1-((3S,4S)-3-fluoro-1-(oxetane-3-yl)piperidine-4-yl)-1H-pyrazole-4-yl)amino)((1-methylcyclopropyl)amino)-7H-pyrrolo[2,3-d]pyrimidine-5-carbonitrile], the remaining binding at 1 µM in experiment [1] amounted to 28%; in experiment [2], 0.4%; in experiment [3], 6.2%; in experiment [4], 0.3%; in experiment [5], 2.6%; in experiment [6], 72%. The remaining binding at 1 µM was 39% in experiment [7] and 73% in experiment [8].

`CCNc1nc(Nc2ccc(C(=O)N3CCC(N4CCOCC4)CC3)cc2OC)nc2[nH]cc(C(F)(F)F)c12` [Example 104, (4-((4-(ethylamino)-5-(trifluoromethyl)-7H-pyrrolo[2,3-d]pyrimidine-2-yl)amino)-3-methoxyphenyl)(4-morpholinopiperidine-1-yl)methanone]: the remaining binding at 1 µM was found to be 83% in experiment [1]; 87% in experiment [2]; 100% in experiment [3]; 83% in experiment [4]; 2% in experiment [5]; 51% in experiment [6]. For the same compound, the remaining binding at 1 µM worked out at 45% in experiment [7] and 99% in experiment [8].

Regarding `CNc1nc(Nc2ccc(C(=O)N3CCOCC3)cc2OC)nc2[nH]cc(C#N)c12` [Example 1, 2-((2-methoxy-4-(morpholine-4-carbonyl)phenyl)amino)-4-(methylamino)-7H-pyrrolo[2,3-d]pyrimidine-5-carbonitrile], the remaining binding at 1 µM came to 57% in experiment [1]; 73% in experiment [2]; 99% in experiment [3]; 93% in experiment [4]; 0% in experiment [5]; 16% in experiment [6]. Also, the remaining binding at 1 µM was determined as 95% in experiment [7] and 100% in experiment [8].
